Results as given in patent US20040171019A1, “PIN1 peptidyl-prolyl isomerase polypeptides, their crystal structures, and use thereof for drug design” (Agouron Pharmaceuticals, Inc., priority 2002, published 2004).
Numbered stars: 1 amine (or outer) side, 2 acyl side, 3 side chain; on linkers, the order of the positions; unused ones are H or OH. Square brackets hold non-standard residues; d marks the D form. Peptide text beside a SMILES is read from it. * marks the point of attachment. pS = N[C@@H](COP(=O)(O)O)C(=O)O; pNA = O=[N+]([O-])c1ccc(N*)cc1; Suc = O=C(CCC(=O)[*:2])[*:1]

What was measured:
[1] = target: T1, His-tagged construct of the K77Q/K82Q PPIase domain (Homo sapiens, UniProt Q13526, K77Q/K82Q); assay: Isothermal titration calorimetry; assay type: binding
T1 construct: made in house; host or cells: E. coli BL21(DE3)
Procedure: The working volume of the ITC cell was 1.414 mL. Both solutions contained 25 mM MOPS pH 7.5, 0.5 mM TCEP and 2.0% DMSO (vol./vol.). The PPIase polypeptide solution was prepared by exhaustively dialyzing a stock protein solution against several changes of dialysis buffer (25 mM MOPS pH 7.5, 0.5 mM TCEP) at 4.0° C.
After dialysis the protein was centrifuged to remove any particulate matter. The protein concentration was then determined by absorbance using an extinction coefficient that had been calculated based on the tryptophan and tyrosine content of the protein. The dialysed protein was then diluted with the dialysate and 2.0% (volume to volume) DMSO was added to yield a final concentration of 200 μM protein. […] An aliquot of the stock solution was diluted in DMSO and then an appropriate volume of dialysate was added. The final DMSO concentration was 2.0% (volume to volume) and the final compound concentration was 10 μM.
Appropriate control titrations (buffer into buffer, buffer into compound, and protein into buffer) were performed to determine the heats of dilution. Prior to fitting for the binding parameters, the observed heats of binding were corrected for heat of dilution of the protein. […] The data were fit using the ORIGIN® software package (MicroCal) provided with the ITC (FIG. 6). […] The One Set of Sites model with ligand in the cell was selected.

PPIase domain of PIN1 = target: T2, PPIase domain of PIN1 (Homo sapiens, UniProt Q13526); assay: Fluorescence polarization competition assay with fluorescein-tagged Pintide; assay type: binding; settings: free Pintide as inhibitor control
T2 construct: made in house; host or cells: E. coli BL21(DE3)
From the text: This assay is based on fluorescence polarization. In fluorescence polarization detection, monochromatic light passes through a polarized filter and excites molecules in the sample well. Only those molecules that are oriented properly in the polarized plane absorb light, become excited, and subsequently emit light. The emitted light is detected after passing through polarizing filters that are oriented parallel and perpendicular to the plane of excitation. Since small molecules rotate more quickly than large molecules (e.g. in the form of a bound complex), the parallel (S) and perpendicular (P) measurements are closer and the difference is lower. Fluorescence polarization is measured in mP (milliP) which is defined using the following equation: […]
For the PIN1 assay, library compounds compete with fluorescein-tagged Pintide to bind the PPIase domain of PIN1. After a short incubation, samples are assayed using fluorescence polarization. The excitation and emission of fluorescein occur at 485 nm and 530 nm, repectively. […]
Experiments were performed in either 96-well plates or 384-well black flat bottom polystyrene non-binding surface (NBS) plates (Costar). […] Excitation was measured at 485 nm and emission was measured at 530 nm. Readings were taken in a Florescence Polarization reader (Molecular Devices Analyst). […]

mutant PPIase K77Q/K82Q = target: T3, mutant PPIase K77Q/K82Q (Homo sapiens, UniProt Q13526, K77Q/K82Q); assay: PIN1 peptidyl-prolyl isomerase assay (protease-coupled, Suc-AEPF-pNA); assay type: biochemical; settings: 15° C., read-out: Km for this substrate
T3 construct: 6xHis (N, cleaved yes); made in house; host or cells: E. coli BL21(DE3)
Procedure: PIN1 is a phosphorylation dependent peptidyl-prolyl isomerase. […] Cleavage of the isomerized peptide releases para-nitroanaline, which can be monitored by an increase in absorbance at 390 nm. […] To minimize the spontaneous isomerization of the peptide substrate, reactions are performed at 15° C.
The rate constant k is linearly proportional to the concentration of active enzyme present in the assay mixture once the rate constant for the spontaneous isomerization is subtracted.

human PIN1 = human PIN1 (Homo sapiens, UniProt Q13526); settings: Hennig et al., Biochemistry 37: 5953-5960 (1998); cited from earlier work
[2] = tested on: Suc-AEPF-pNA peptide substrate; assay: Peptidyl-prolyl isomerase activity of PIN1 polypeptides without inhibitor; assay type: biochemical; settings: 0.033 nM enzyme, 100 μM Suc-AEPF-pNA
From the text: PIN1 is a phosphorylation dependent peptidyl-prolyl isomerase. Peptidyl-prolyl ismomerase activity for the peptides of the invention can be measured using a spectrophotometric assay based on the coupled chymotrypsin catalyzed, cis-trans conformation dependent cleavage of a para-nitroanaline-containing peptide substrate. This rotamase assay is described by Kofron et al. (Biochemistry 30, […] (1991)) and its application to PIN1 isomerase activity is described by Yaffe et al. (Science 278, 1957-1960 (1997)). Cleavage of the isomerized peptide releases para-nitroanaline, which can be monitored by an increase in absorbance at 390 nm. The PIN1 peptide substrate, succinyl-alanine-[…]-proline-phenylalanine-paranitroaniline (Suc-AEPF-pNA) (Bachem California, Inc., Torrence, Calif.) is kept in a predominantly cis conformation with an anhydrous TFE (trifluorethanol)/LiCl (lithium chloride) solvent mixture. […]
Peptidyl-prolyl isomerase reactions were carried out in 25 mM MOPS [3-(N-Morpholino)propanesufonic acid], pH 7.5, 0.5 mM TCEP [Tris(2-carboxyethyl)phosphine hydrochloride], 2% DMSO, 5 μl of a 25 mg/ml solution of Subtilisin Carlsberg Protease (Sigma), […], and 100 μM Suc-AEPF-pNA peptide substrate. […] The absorbance at 390 nm was monitored continuously until all substrate had been converted to the cleaved product. […]

[3] = ITC, 15.0° C., duplicate, ± standard deviation
[4] = best fit of corrected binding data, FIG. 6

For `O=C(N[C@@H](COP(=O)(O)O)Cc1ccccc1)c1cc2ccccc2s1` [Compound I, Phosphoric acid mono-{(R)-2-[(1-benzo[b]thiophen-2-yl-methanoyl)-amino]-3-phenyl-propyl} ester], which enthalpy of binding [1, 3] is on record?
The enthalpy of binding was −7.3 (±0.1) kcal/mol.

And the stoichiometry [1, 3]?
The stoichiometry was 0.854 (±0.003).

What about the C value [1, 4] of the same compound?
The C value was 142.

And the ka [1, 4]?
Its ka is 1.42e+07 M⁻¹.

Which IC50 (PPIase domain of PIN1) does the source give for `CC(C)C[C@H](NC(=O)[C@H](Cc1ccccc1)NC(=O)[C@@H]1CCCN1C(=O)[C@H](COP(=O)(O)O)NC(=O)[C@H](Cc1ccc(O)cc1)NC(=O)[C@H](Cc1ccccc1)NC(=O)[C@@H](N)Cc1c[nH]c2ccccc12)C(=O)N[C@@H](CCC(=O)O)C(=O)O` [Pintide] (H-WFY[pS]PFLE-OH) here?
The IC50 was 7 to 10 µM.

With `C[C@H](NC(=O)CCC(=O)O)C(=O)N[C@@H](CCC(=O)O)C(=O)N1CCC[C@H]1C(=O)N[C@@H](Cc1ccccc1)C(=O)Nc1ccc([N+](=O)[O-])cc1` [Suc-AEPF-pNA] (Suc-AEPF-pNA) as the compound, how does the Km (mutant PPIase K77Q/K82Q) read?
Its Km is > 100 µM.

Which “inhibition of parvulins, including human PIN1” value (human PIN1) does the source give for `O=C1C=CC(=O)c2c(O)cccc21` [juglone, 5-hydroxy-1,4-naphthoquinone] here?
Its value is “selectively inhibits”.

For “wild-type PIN1: wild type human PIN1, a phosphorylation dependent peptidyl-prolyl isomerase”, which rate [2] is on record?
Its rate is 0.2.
